Experimental data from patent US7829298B2, “Human G protein-coupled receptors for metabolic-related disorders” (Arena Pharmaceuticals, Inc., priority 2001, dated 2010).
Entries after “also recorded” stand apart in the source; their conditions may differ. Like-named read-outs stand apart in the source and are kept apart here. One block for each compound: values may come before it.

Tests used:
[1] = test system: adipocyte primary cultures derived from human subcutaneous fat; assay: Isoproterenol induced lipolysis in human primary adipocytes; format: cell-based; conditions: for EC50: read-out: EC50, inhibition of isoproterenol induced lipolysis
Source text: Lipolysis assays were done following the isolation of adipocytes from rat or human. The source of fat from rats was the epididymal fat and from humans was either subcutaneous or omental. Cells were isolated following collagenase digestion and floatation. An elevation of intracellular cAMP levels and concomitant activation of lipolysis via hormone sensitive lipase was accomplished using isoproterenol, forskolin, 3-isobutyl-1-methyl-xanthine (IBMX) or a combination thereof at concentrations and times determined empirically and depending on the source of tissue. […] Data was analyzed using Excel and PrismGraph.

hRUP25 = hRUP25 (Homo sapiens, UniProt Q8TDS4); assay: Inhibition of forskolin stimulated cAMP accumulation in stable CHO cells (adenylyl cyclase assay); format: cell-based; conditions: for inhibition of forskolin stimulated cAMP / agonist or not (in words): CHO cells expressing hRUP25
hRUP38 = target: T1, hRUP38 (Homo sapiens, UniProt P49019); assay: Inhibition of forskolin stimulated cAMP in stable CHO cells (adenylyl cyclase assay); format: cell-based
T1 construct: The full length hRUP38 was cloned by PCR using hRUP38 specific primers; expressed in transfected cells
Source text: (§1) A Flash Plate™ Adenylyl Cyclase kit (New England Nuclear; Cat. No. SMP004A) designed for cell-based assays can be modified for use with crude plasma membranes. The Flash Plate wells can contain a scintillant coating which also contains a specific antibody recognizing cAMP. The cAMP generated in the wells can be quantitated by a direct competition for binding of radioactive cAMP tracer to the cAMP antibody. The following serves as a brief protocol for the measurement of changes in cAMP levels in whole cells that express the receptors.
(§2) Media is carefully aspirated off and discarded. 10 ml of PBS is gently added to each dish of cells followed by careful aspiration. 1 ml of Sigma cell dissociation buffer and 3 ml of PBS are added to each plate. Cells were pipetted off the plate and the cell suspension was collected into a 50 ml conical centrifuge tube. Cells were then centrifuged at room temperature at 1,100 rpm for 5 min. The cell pellet was carefully re-suspended into an appropriate volume of PBS (about 3 ml/plate). The cells were then counted using a hemocytometer and additional PBS was added to give the appropriate number of cells (with a final volume of about 50 μl/well).
The cells were then added to the wells and incubated for 60 min at room temperature. 100 μl of Detection Mix containing tracer cAMP was then added to the wells. Plates were then incubated additional 2 hours followed by counting in a Wallac MicroBeta scintillation counter. Values of cAMP/well were then extrapolated from a standard cAMP curve which was contained within each assay plate.

hRUP19 [2] = target: T2, hRUP19 (Homo sapiens, UniProt Q9BXC0); assay: as above; format: cell-based; design: The full length hRUP19 was cloned by PCR using primers; expressed in transfected cells; conditions: CHO cells expressing hRUP19
Source text: as §1
as §2, with “μl/well). […]” for “μl/well).”

[3] = test system: rat epididymal fat derived adipocytes; conditions: concentration of 10 μM
male Sprague Dawley rats = conditions: for plasma free fatty acids (FFA) level (in words): fasted rats, IP injection, 15 mg/kg, 30 mg/kg or 45 mg/kg, time course
hRUP19 [4] = target: T2, hRUP19; conditions: HEK293 cells transfected with GqΔGi plus hRUP19

T1 sequence (P49019 whole entry K94N/T173P/F198L/H253R/I317M/I346M): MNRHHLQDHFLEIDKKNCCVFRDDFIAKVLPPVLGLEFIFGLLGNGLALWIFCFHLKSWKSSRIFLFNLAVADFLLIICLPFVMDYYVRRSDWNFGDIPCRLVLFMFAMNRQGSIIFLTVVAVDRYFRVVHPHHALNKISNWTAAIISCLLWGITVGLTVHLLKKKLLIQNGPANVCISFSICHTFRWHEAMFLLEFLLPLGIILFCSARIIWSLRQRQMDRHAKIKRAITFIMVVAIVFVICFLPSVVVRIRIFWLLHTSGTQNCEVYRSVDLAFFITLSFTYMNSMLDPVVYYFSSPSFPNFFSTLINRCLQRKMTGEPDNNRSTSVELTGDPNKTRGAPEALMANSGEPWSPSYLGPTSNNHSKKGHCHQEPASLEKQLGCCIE
Chain of hRUP25 (Q8TDS4 whole entry): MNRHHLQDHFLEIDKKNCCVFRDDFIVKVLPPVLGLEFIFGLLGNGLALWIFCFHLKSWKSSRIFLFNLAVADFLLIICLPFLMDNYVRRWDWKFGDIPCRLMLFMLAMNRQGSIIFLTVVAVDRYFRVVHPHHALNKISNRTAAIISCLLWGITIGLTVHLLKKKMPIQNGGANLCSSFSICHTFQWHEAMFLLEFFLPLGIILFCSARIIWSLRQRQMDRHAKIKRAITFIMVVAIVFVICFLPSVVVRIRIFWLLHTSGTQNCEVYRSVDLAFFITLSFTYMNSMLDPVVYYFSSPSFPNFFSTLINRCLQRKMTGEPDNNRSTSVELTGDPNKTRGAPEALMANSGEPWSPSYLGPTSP
T2 sequence (Q9BXC0 whole entry): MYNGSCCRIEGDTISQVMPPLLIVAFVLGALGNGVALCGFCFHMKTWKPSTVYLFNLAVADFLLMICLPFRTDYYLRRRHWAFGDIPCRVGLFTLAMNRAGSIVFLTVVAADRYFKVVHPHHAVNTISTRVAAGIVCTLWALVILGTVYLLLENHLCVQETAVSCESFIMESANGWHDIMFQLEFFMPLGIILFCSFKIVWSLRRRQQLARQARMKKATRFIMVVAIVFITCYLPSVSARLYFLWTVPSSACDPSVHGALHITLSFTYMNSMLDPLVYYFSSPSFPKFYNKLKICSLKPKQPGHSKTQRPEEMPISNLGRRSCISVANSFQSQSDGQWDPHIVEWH

SMILES: CC(C)n1nnc2cc(C(=O)O)ccc21 [1-Isopropyl-1H-benzotriazole-5-carboxylic acid]
inhibition of isoproterenol stimulated lipolysis (in words) ([1]; isoproterenol 100 nM, primary human adipocytes): dose-dependant manner comparable to that of nicotinic acid; also recorded: dose-dependent manner comparable to that of nicotinic acid; also recorded: inhibit lipolysis | inhibition of forskolin stimulated cAMP / agonist or not (in words) (hRUP25): no effect | inhibition of forskolin stimulated cAMP / agonist or not (in words) (hRUP38; hRUP38-expressing CHO cells): does and agonist for hRUP38 | inhibition of forskolin stimulated cAMP / agonist or not (in words) (hRUP19 [2]): no effect

SMILES: CN1CCC[C@H]1c1cccnc1 [(−)-nicotine, (−)-NICOTINE, reference compound]
EC50 (hRUP25): 9800 nM | inhibition of forskolin stimulated cAMP / agonist or not (in words) (hRUP25): agonist for RUP25

SMILES: c1cncc(-c2nn[nH]n2)c1 [P-3-T, 3-tetrazole-5-pyridine, reference compound]
EC50 ([1]; adipocyte primary cultures derived from human subcutaneous fat): 218 nM

SMILES: O=C(O)c1cccnc1 [nicotinic acid, Nicotinic acid]
inhibition of isoproterenol induced lipolysis (in words) [3]: inhibiting isoproterenol induced lipolysis | inhibition of isoproterenol stimulated lipolysis (in words) [1]: inhibit lipolysis | EC50 ([1]; Homo sapiens, Adipocyte): 716 nM | plasma FFA versus vehicle control after inhibition, rebound (in words) (male Sprague Dawley rats; 45 mg/kg IP, at 3 hr): rebound effect | plasma free fatty acids (FFA) level (in words) (male Sprague Dawley rats): lower plasma free fatty acids | plasma free fatty acids (FFA) level (in words) (male Sprague Dawley rats; listed as niacin): significantly decrease | inositol phosphates (IPs) accumulation / agonist or not (in words) (hRUP19 [4]): unresponsive | inositol phosphates (IPs) accumulation / agonist or not (in words) (hRUP19 [4]; listed as Nicotinic acid): not for RUP38 or RUP19

Continued, in another order:

inhibition of forskolin stimulated cAMP / agonist or not (in words) (hRUP25): no effect | EC50 (hRUP38; hRUP38-expressing CHO cells): 1170 nM | inhibition of forskolin stimulated cAMP / agonist or not (in words) (hRUP19 [2]): no effect
SMILES: CCOc1ccc(Br)cc1C=CC(=O)O [3-(5-Bromo-2-ethoxy-phenyl)-acrylic acid]
inhibition of forskolin stimulated cAMP / agonist or not (in words) (hRUP38; hRUP38-expressing CHO cells): activates inhibition of forskolin stimulated cAMP; also recorded: agonist for RUP38

inhibition of forskolin stimulated cAMP / agonist or not (in words) (hRUP25; listed as (5-Hydroxy-1-methyl-3-propyl-1H-pyrazol-4-yl)-pyridin-3-yl-methanone): agonist for RUP25 | EC50 (hRUP25; hRUP25-expressing CHO cells (stable line #46 in FIG. 18B), read-out: EC50, inhibition of forskolin stimulated cAMP accumulation): 352 nM | inhibition of forskolin stimulated cAMP / agonist or not (in words) (hRUP38; hRUP38-expressing CHO cells): not for RUP38 | activity on hRUP38-expressing CHO cells (in words) (hRUP38; up to a concentration of at least 100 μM (not shown)): no activity
SMILES: CCCc1nn(C)c(O)c1C(=O)c1cccnc1 [(5-Hydroxy-1-methyl-3-propyl-1H-pyrazol-4-yl)-pyridin-3-yl-methanone]
inhibition of forskolin stimulated cAMP / agonist or not (in words) (hRUP25): activates inhibition of forskolin stimulated cAMP
